In article PMC11915372, “Identification of a Series Containing a Pentafluorophenyl Moiety That Targets Pks13 to Inhibit Growth of Mycobacterium tuberculosis” (ACS Infectious Diseases, 2025):
Where “and” joins values, the source holds several entries; their conditions need not be identical. Identical values can stand only once.

System: H37Rv cells
Type: cell-based, Mycobacterium tuberculosis

CN(C)c1ncnc2sc(-c3c(F)c(F)c(F)c(F)c3F)nc12.Cl [Compound 1, CN(C)c1ncnc2sc(nc12)-c1c(c(c(c(c1F)F)F)F)F]
frequency of resistant colonies: 10^–7 and 10^–8
